This note sets out measurements from US20100286154A1, “ANTIHELMINTIC PASTE” (priority 2007, published 2010).

This data set is described as follows: Paste stability test (storage in glass containers, assay of active ingredients by HPLC). The format is physicochemical. The conditions noted are these: paste composition of Example 2, glass containers. The text has this: The paste composition of Example 2 was stored in glass containers at different temperatures for up to 12 months and assay of both active ingredients followed by HPLC analysis at given time points (3-, 6- and 12-months).

On to `O=C(C1CCCCC1)N1CC(=O)N2CCc3ccccc3C2C1` (stereo not drawn) [Praziquantel, 2-(cyclohexylcarbonyl)-1,2,3,6,7,11b-hexahydro-4H-pyrazino[2,1-a]isoquinoline-4-one], for which the “Content in % of start value” runs as follows: (5° C., 3 month) 102.20%; (5° C., 6 month) 103.98%; (5° C., 12 month) 103.56%; (25° C., 3 month) 102.52%; (25° C., 6 month) 101.99%; (25° C., 12 month) 102.73%. Moreover, the “Content in % of start value” by setting is: (30° C., 3 month) 100.63%; (30° C., 6 month) 102.31%; (30° C., 12 month) 102.62%; (40° C., 3 month) 101.36%; (40° C., 6 month) 102.10%; (40° C., 12 month) 100.94%.
